Source: US20020143143A1, “Peptides designed for the diagnosis and treatment of rheumatoid arthritis” (priority 1999, published 2002)
Like-named read-outs stand apart in the source and are kept apart here.

Legend:
[1] = test system: anti-filaggrin antibodies in human sera; assay: Western blotting using natural filaggrin; type: binding
Method: Natural filaggrin was purified from human skin obtained freshly after abdominoplasty according to the protocol of Simon et al. (1993). The amount of protein was determined by the Bradford protein assay as modified by Peterson (1983) using BSA standard curves. The crude filaggrin preparation was subjected to 15% Laemmli SDS-PAGE using the Bio-Rad mini-gel apparatus. Two-μg protein/cm was loaded in a large slot and electrophoresed under standard conditions. The gel was subsequently electroblotted onto nitrocellulose membrane in 10% methanol, 10 mM CAPS, pH 11.0 during 40 min. The blot was blocked in PBS, 0.05% Tween20, 1% gelatin and cut into 3 mm strips, which were probed with human sera overnight at a 1/100 dilution in PBS, 0.05% Tween20, 0.1% gelatin. As a secondary antibody the anti-human IgG-AP conjugate (Sigma, St Louis, […]) was added at a 1/1000 dilution; visualisation occurred with the NBT/BCIP chromogenic substrate.

RA sera [2] = details: 159/279 RA sera; specificity level of 98.6% using 213 disease control sera; cited from earlier work
RA sera [3] = details: cited from earlier work
[4] = test system: anti-filaggrin autoantibodies; details: cited from earlier work
[5] = test system: RA specific autoantibodies in human sera; assay: LIA comparison of synthetic peptides with existing peptides and citrullinated recombinant filaggrin (Example 3); type: binding; details: 212 established RA sera, 153 disease control sera (table title: 225 and 154); ROC analysis
Method: Streptavidin-complexed peptides were applied directly on a nylon membrane with a plastic backing. Blocked strips were incubated during 1 hour with human sera diluted 1/100 in 1 ml PBS, 0.5% caseine, 0.1% Triton X705, 10 mM MgCl2.6H2O. After washing with PBS, 0.05% Tween20, goat anti-human IgG-AP conjugate (Promega) diluted in PBS, 0.1% caseine, 0.2% Triton X705 was added for 30 min. Strips were developed in 100 mM NaCl, 100 mM Tris-HCl, pH 9.8, 50 mM MgCl2.6H2O substrate buffer containing the chromogenic substrate NBT/BCIP. Reaction was stopped after 30 min by addition of 0.2 N H2SO4. Air-dried strips were scanned using a HP Scanjet 5P scanner and an in-house LIA interpretation software program.
Recombinant human filaggrin was expressed in E. coli and purified by Ni-IMAC chromatography. Citrullination was performed as described by Senshu et al. (1995) using peptidylarginine deiminase (Sigma) at a 1/120 enzyme/substrate ratio during 4h at 37° C.
Three synthetic peptides (IGP1475, 1477 and 1564) described by Girbal-Neuhauser (1999) (patent application WO 99/35167) and the cyclic peptide IGP1546 described in the patent application WO 98/22503, were synthesised and used for comparison with IGP1611, 1646, 1650 and 1651 on LIA.
On the same strips, also citrullinated recombinant E. coli filaggrin was applied. […]

In the case of “natural filaggrin: Natural filaggrin purified from human skin (crude filaggrin preparation); in b6 isolated from human epidermis”, the “sensitivity of Western blot” value ([1]; 47 sera from patients with early disease (less than 12 months of symptoms)) is reported as 25%, the “specificity of Western blot system” value ([1]; 153 disease controls) is reported as 94% and the “sensitivity of Western blot” value ([1]; 212 longstanding RA sera) is reported as 41%. The “RA sera showing positive reaction on Western blot” value (RA sera [2]) was 37%, the “RA sera detected in ELISA” value (RA sera [3]; 55 RA sera) was 47% and the “healthy controls showing positivity in ELISA” value (RA sera [3]; healthy controls) was 1%.

For “recombinant human filaggrin: recombinant human filaggrin, in vitro deiminated by PAD or non-citrullinated (Girbal-Neuhauser et al., 1999)”, the “reactivity with human RA sera in ELISA” value ([4]; after in vitro deimination by peptidylarginine deiminase (PAD)) is given as “reactive” and the “reactivity with human RA sera in ELISA” value ([4]; non-citrullinated protein) is given as “unreactive”.

In the case of “Citr. rec. filaggrin: Recombinant human filaggrin expressed in E. coli, citrullinated using peptidylarginine deiminase”, the “Sensitivity at 98% spec. level” value [5] is reported as 32%.
